Laboratory results as given in publication PMC12378621, “Benzo-ring modification on Malaria Box hit MMV008138: effects on antimalarial potency and microsomal stability” (RSC Medicinal Chemistry, 2025).
Several values for one entry are separate records, joined by “and”; a condition that tells them apart may be missing. Identical values can stand only once. Like-named read-outs stand apart in the source and are kept apart here.

Tests used:
[1] = test system: P. falciparum (Dd2 strain); settings: 72 h exposure, multidrug-resistant Dd2 strain; reported values; read-out: Dd2 strain EC50; cited from earlier work
[2] = test system: P. falciparum (Dd2 strain); assay: ABS P. falciparum growth inhibition, SYBR Green I assay, 72 h endpoint; type: cell-based, Plasmodium falciparum; settings: for EC50: Plasmodium falciparum, DD2, SYBR Green I, 72 h endpoint, read-out: Dd2 strain P. falciparum growth inhibition EC50; for loss of growth inhibition potency (EC50) relative to 1: Dd2 strain
Protocol: Parasites were maintained in O-positive human erythrocytes (Grifols, Memphis, TN, USA) at 5% hematocrit in RPMI 1640 medium supplemented with 5 g L^−1 Albumax I (Gibco Life Technologies), 2 g L^−1 glucose (Sigma-Aldrich), 2.3 g L^−1 sodium bicarbonate (Sigma-Aldrich), 370 μM hypoxanthine (Sigma-Aldrich), 25 mM HEPES, and 20 mg L^−1 gentamicin (Gibco Life Technologies). The parasites were kept at 37 °C under reduced-oxygen conditions (5% CO2, 5% O2, and 90% N2).
(§1) […]. MMV008138 (1) was used as control. The percentage of growth was normalized to that of untreated control parasites in the presence of 0.1% DMSO. Background determinations were made using uninfected erythrocytes. Two or more independent experiments in duplicate were performed. The EC50 values were calculated with GraphPad Prism 9 (GraphPad Software Ltd.) using nonlinear regression curve fitting with variable slope (four parameters) and represent the average and their standard error of the mean (S.E.M.). To assess whether 20a–e specifically targeted the apicoplast, the recovery of growth in the presence of inhibitor and isopentenyl diphosphate (IPP) was performed as described previously.[8] Briefly, parasites were grown in the presence or absence of 200 μM IPP along with a serial dilution (10 μM to 0.01 μM) or single concentration (10 or 20 μM) of drug. […] All conditions were set in 96-well half area plates using highly synchronous ring-stage parasite cultures (100 μL per well at 1% hematocrit and 1% parasitemia) and incubated for 72 h under normal culture conditions. Parasite growth was measured by the SYBR green I assay.

[3] = test system: P. falciparum (Dd2 strain); assay: Metabolic rescue of parasite growth by isopentenyl diphosphate (IPP) supplementation; type: cell-based, Plasmodium falciparum; settings: drug at 10 μM
Protocol: as §1

[4] = test system: Plasmodium berghei ANKA expressing luciferase (PbGFP-Luccon); assay: In vivo efficacy in P. berghei-infected mice (luminescence on Day 7)
Protocol: 2. In vivo efficacy studies of 1 (NYU) in P. berghei-infected mice (po and iv) Efficacy of 1 in P. berghei-infected mice was assessed at the Anti-Infectives Core Facility, Department of Microbiology, Grossman School of Medicine, New York University.
A. Oral Administration Protocol
Three groups of five female Swiss Webster mice weighing 25 to 30 g were used for vehicle […]
berghei ANKA expressing luciferase (PbGFP-Luccon) obtained from a donor infected mouse.10 […]
2 to 6 and imaged on day 7.
Figure S1. Dosing and imaging timeline of P. berghei-infected mice. […]
Day 7 as described in the text.
The vehicle for all groups was 0.5% (hydroxypropyl)methyl cellulose, 0.5% Tween-80.
For the surviving mice, o n day 7 after infection, mice were anesthetized by inhalation of isofluorane and injected via i.p. with 150 mg/kg of luciferase substrate dissolved in PBS (D-Luciferin Potassium Salt , Gold Biotechnology ).
Mice were imaged 5 to 10 min after inj ection of luciferin using an IVIS imager (Lumina II In Vivo Imaging System; Perkin -Elmer). The data acquisition and analysis were performed with LivingImage (Xenogen). Accumulated light intensity was measured in each mouse to determine the baseline infection levels before treatment .
(1 picture or pasted object on this page, not shown here)
B. IV Administration Protocol
One group of four female Swiss Webster mice weighing 25 to 30 g were used for vehicle control, and groups of five mice were used for 1 treatment (IV, 2 x 30 mg/kg/d) and the positive […]
On Day 0, mice were infected via intraperitoneal (i.p.) […]
from a donor infected mouse. 10 As shown below in Figure S2 (and legend), mice were treated […]
Figure S2. Dosing and imaging timeline of P. berghei-infected mice. Vehicle and 1 (30 mpk) treatments were administered IV twice -daily on Days 2-6. […]
administered i .p. once-daily. Mice were imaged on Day 7, as described in the text.
The vehicle for this study was 30%PEG, 40% Captisol (30%w/v solution).
Table S2. Luminescence Data after background subtraction for IV dosing of Vehicle, 1, and IP […]
Table S9. Concentration of 20c vs time in mice. […]
Figure S6. Dosing and imaging timeline of P. berghei-infected mice. […]

[5] = Mouse microsomal stability (authors' laboratory, UPLC/MS/MS); settings: presence of NADPH
Protocol: Mouse microsomal stability of 20a, 20c, 20d was first assessed in our laboratory. […]
and coumarin were used as controls . Microsomal stability was assessed by ultra-performance liquid chromatography and high -resolution mass spectrometry […]
MA). Potassium phosphate monobasic, potassium phosphate dibasic, and coumarin were purchased from Sigma-Aldrich (St. Louis, MO). Briefly, compound incubations were carried out by the addition of mouse liver microsomes (0.5 mg/ml) in 0.05 M potassium phosphate buffer (pH 7.4), solution A and B, and preincubated at 37°C for 5 min. Control experiments were also carried out in the absence of NADPH solution A and B. Coumarin reaction was used as positive control. Reactions were terminated by adding acetonitrile. Sample analysis was performed on an IonKey/MS system composed of an ACQUITY UPLC M-Class, the ionKey source, and an iKey BEH C18 130 Å 1.7 µm 150 µm x 50 mm column coupled to a Synapt G2-Si mass spectrometer (Waters Corporation, Milford, MA, USA). Separation was accomplished using a binary gradient system consisting of 0.1% formic acid in water (mobile phase A) and 0.1% formic acid in acetonitrile (mobile phase B). The linear gradient was programmed as follows: 0-3 min 1% B, 3- […]
was 3 µL/min, the injection volume was 3 µL in full loop mode, and the iKey temperature was set at 40°C. MS analyses were performed acquiring in MSE mode from 80 to 1500 m/z in positive electrospray ionization mode with a capillary voltage of 3 kV. Data were collected in two channels all the time: low collision energy (6.0 V), for the molecular ions, and high collision energy (15-40 V), for product ions. The source temperature was set at 110°C. Leucine […]
scan at 20 s intervals. Infusion flow rate for lock mass was 1 μL/min. The microsomal stability was determined using MassLynx software (Waters Corporation, Milford, MA, USA). Relative amounts were calculated by comparing the peak area of each evaluated compound at time 0 minutes to its corresponding area at times 45, 90 and 180 minutes to return a ratio.

[6] = Table 2, enantiopure, average ± S.E.M
[7] = Table S2, Days 2-6, imaged Day 7, Cmpd 1 30 mg/kg 2 x daily IV, CQ 20 mg/kg 1 x daily i.p.

For `CCNC(=O)[C@@H]1Cc2c([nH]c3ccccc23)[C@@H](c2ccc(Cl)cc2Cl)N1` [Compound 8], the EC50 [1] is listed as ~5000 nM.

For `NC(=O)[C@@H]1Cc2c([nH]c3ccccc23)[C@@H](c2ccc(Cl)cc2Cl)N1` [Compound 6], the EC50 [1] is listed as 1200 nM.

With `O=C(O)[C@@H]1Cc2c([nH]c3ccc(F)cc23)[C@@H](c2ccc(Cl)cc2Cl)N1` [Compound 20b] the EC50 [2, 6] was 1.25 to 2.5 µM.

With `O=C(O)[C@@H]1Cc2c([nH]c3c(Br)cccc23)[C@@H](c2ccc(Cl)cc2Cl)N1` [Compound 18d] the EC50 [2, 6] was > 10 µM.

With `N#Cc1ccc2c3c([nH]c2c1)[C@@H](c1ccc(Cl)cc1Cl)N[C@H](C(=O)O)C3` [Compound 21c] the EC50 [2, 6] was > 20 µM.

In the case of `Cc1cccc2c3c([nH]c12)[C@@H](c1ccc(Cl)cc1Cl)N[C@H](C(=O)O)C3` (racemic) [(±)-16d], the EC50 ([2]; Table 1, racemic samples) is reported as > 10 µM.

For `O=C(O)[C@@H]1Cc2c([nH]c3cc(F)cc(F)c23)[C@@H](c2ccc(Cl)cc2Cl)N1` [Compound 20e], the EC50 [2, 6] was 0.964 ± 0.063 µM and the “% recovery (200 μM IPP)” value [3] was 80%@10 μM.

In the case of `Cc1cccc2[nH]c3c(c12)C[C@@H](C(=O)O)N[C@@H]3c1ccc(Cl)cc1Cl` (racemic) [(±)-16a], the EC50 ([2]; Table 1, racemic samples) is reported as > 10 µM.

For `O=C(O)[C@@H]1Cc2c([nH]c3ccccc23)[C@@H](c2ccc(Cl)cc2)N1` [Compound 4], the EC50 [1] is given as 1170 nM.

With `O=C(O)[C@@H]1Cc2c([nH]c3cccc(Br)c23)[C@@H](c2ccc(Cl)cc2Cl)N1` [Compound 18a] the EC50 [2, 6] was > 10 µM.

In the case of `Cc1ccc2[nH]c3c(c2c1)C[C@@H](C(=O)O)N[C@@H]3c1ccc(Cl)cc1Cl` (racemic) [(±)-16b], the EC50 ([2]; Table 1, racemic samples) is reported as > 10 µM.

For `O=C(O)[C@@H]1Cc2c([nH]c3cc(Cl)ccc23)[C@@H](c2ccc(Cl)cc2Cl)N1` [Compound 19c], the “loss of growth inhibition potency (EC50) relative to 1” value [2] was 5 fold and the EC50 [2, 6] was 1.3 ± 0.1 µM.

In the case of `O=C(O)[C@@H]1Cc2c([nH]c3ccccc23)[C@@H](c2ccc(Br)cc2Cl)N1` [Compound 2], the EC50 [1] is given as 320 ± 60 nM.

With `Cc1ccc2c3c([nH]c2c1)[C@@H](c1ccc(Cl)cc1Cl)N[C@H](C(=O)O)C3` (racemic) [(±)-16c] the EC50 ([2]; Table 1, racemic samples) was > 10 µM.

For `O=C(O)[C@@H]1Cc2c([nH]c3ccc(Br)cc23)[C@@H](c2ccc(Cl)cc2Cl)N1` (racemic) [(±)-18b], the EC50 ([2]; Table 1, racemic samples) was > 10 µM.

For `O=C(O)[C@@H]1Cc2c([nH]c3ccccc23)[C@@H](c2ccccc2Cl)N1` [Compound 3], the EC50 [1] is given as 3280 nM.

For `CCCCNC(=O)[C@@H]1Cc2c([nH]c3ccccc23)[C@@H](c2ccc(Cl)cc2Cl)N1` [Compound 9], the EC50 [1] is given as > 10000 nM.

With `N#Cc1ccc2[nH]c3c(c2c1)C[C@@H](C(=O)O)N[C@@H]3c1ccc(Cl)cc1Cl` [Compound 21b] the EC50 [2, 6] was > 10 µM.

For `O=C(O)[C@@H]1Cc2c([nH]c3cc(Br)ccc23)[C@@H](c2ccc(Cl)cc2Cl)N1` [Compound 18c], the “loss of growth inhibition potency (EC50) relative to 1” value [2] was 17 fold and the EC50 [2, 6] was 4.3 ± 0.6 µM.

For `CCN(CC)CCCC(C)Nc1ccnc2cc(Cl)ccc12` (centres unmarked) [CQ, chloroquine], the “Luminescence AVG” value ([4]; Table S1, oral 1 x daily Days 2-6, imaged Day 7, CQ 20 mg/kg) was 4.65E+03, the “Live/Dead and luminescence, individual mice” value ([4]; Table S1, oral 1 x daily Days 2-6, imaged Day 7, Cmpd 1 45 mg/kg, CQ 20 mg/kg) was 4.72E+03 and 4.45E+03 and 4.90E+03 and 4.60E+03 and 4.61E+03 and the “Luminescence after background subtraction AVG” value [4, 7] was 2.29E+03. The “Luminescence after background subtraction, individual mice” value [4, 7] was 0.00E+00 and 4.64E+03 and 2.76E+03 and 3.48E+03, the “Luminescence after background subtraction, individual mice” value ([4]; Table S10, 40 mg/kg 1 x daily PO Days 2-6, imaged Day 7) was 4.90E+03 and 3.85E+03 and 4.20E+03 and the “treated mice survived to Day 7” value ([4]; oral Days 2-6) was 5.

In the case of `O=C(O)[C@@H]1Cc2c([nH]c3cccc(Cl)c23)[C@@H](c2ccc(Cl)cc2Cl)N1` (racemic) [(±)-19a], the EC50 ([2]; Table 1, racemic samples) is reported as > 10 µM.

With `O=c1ccc2ccccc2o1` [coumarin] the “% drug remaining” value ([5]; 0 min) was 100%, the “% drug remaining” value ([5]; 45 min) was 27% and the “% drug remaining” value ([5]; 90 min) was 5%.

For `N#Cc1cccc2[nH]c3c(c12)C[C@@H](C(=O)O)N[C@@H]3c1ccc(Cl)cc1Cl` [Compound 21a], the EC50 [2, 6] was > 10 µM.

For `O=C(O)[C@@H]1Cc2c([nH]c3cccc(C(F)(F)F)c23)[C@@H](c2ccc(Cl)cc2Cl)N1` (racemic) [(±)-17a], the EC50 ([2]; Table 1, racemic samples) was > 10 µM.

In the case of `CC(C)NC(=O)[C@@H]1Cc2c([nH]c3ccccc23)[C@@H](c2ccc(Cl)cc2Cl)N1` [Compound 10], the EC50 [1] is listed as ~10000 nM.

In the case of `O=C(O)[C@@H]1Cc2c([nH]c3ccccc23)[C@@H](c2ccccc2)N1` [Compound 5], the EC50 [1] is listed as > 10000 nM.

In the case of `O=C(O)[C@@H]1Cc2c([nH]c3cc(C(F)(F)F)ccc23)[C@@H](c2ccc(Cl)cc2Cl)N1` (racemic) [(±)-17c], the EC50 ([2]; Table 1, racemic samples) is reported as 1.25 to 2.5 µM.

For `CNC(=O)[C@@H]1Cc2c([nH]c3ccccc23)[C@@H](c2ccc(Cl)cc2Cl)N1` [Compound 7], the EC50 [1] is listed as 190 ± 30 nM.
